According to patent publication US20230285347A1, “Preterm Labour with Prostaglandin E2 Receptor Agonists” (IMPERIAL COLLEGE INNOVATIONS LIMITED, priority 2020, published 2023):

Legend:
[1] = molecular target: T1, human FLAG-tagged EP2 (Homo sapiens, UniProt P43116); assay: cAMP induction in HEK 293 cells stably expressing EP2 (Gαs readout); assay type: cell-based; conditions: HEK 293 EP2 cells; 5 minutes of stimulation; no significant difference between ligands; FIG. 2
T1 construct: FLAG; expressed in transfected cells
Protocol: EP2 is a dually coupled GPCR capable of activating downstream signalling pathways via Gαs (anti-labour inducing) and Gαq/11 (pro-labour inducing).
HEK 293 cells were maintained in DMEM (Dulbecco's Modified Eagle Medium) containing 10% fetal bovine serum and 100 μ/ml penicillin-streptomycin, and cultured in 75 cm flasks at 37° C. in 95% air and 5% CO2. Cells at 95% confluency were passaged using 0.25% trypsin with 0.02% EDTA in phosphate-buffered saline (PBS).
(§1) Confluent myometrial cells were treated with/without OT (100 nM) for 1 hour before 3 PBS washes and the addition of […] IBMX (3-isobutyl-1-methylxanthine) in PBS for 5 minutes at 37° C. This was exchanged for 0.5 μM IBMX in PBS plus either DMSO, butaprost (10 μM), AH13205 (10 μM) or PGN9856i (100 nM) for […]. Cells were lysed in Cisbio cAMP lysis buffer with 0.2% TritonX-100 and centrifuged for 15 minutes at 16,000 g. Lysates were normalized to protein concentration determined by Coomassie (Bradford) Protein Assay Kit and analysed as per manufacturers' protocol (Cisbio Gαs dynamic assay) using a PHERAstar FSX.

[2] = molecular target: T2, human FLAG-EP2 (Homo sapiens, UniProt P43116); assay: Intracellular Ca2+ release in HEK 293 cells stably expressing EP2 (Fluo-4, confocal; Gαq/11 readout); assay type: cell-based; conditions: HEK 293 EP2 cells; butaprost 10 μM, AH13205 10 μM, PGN9856i 100 nM; vs vehicle; FIG. 3
T2 construct: FLAG; expressed in transfected cells
Protocol: To measure Gαq/11 activation, HEK 293 cells stably expressing human FLAG-EP2 were pre-labelled with a Ca2+ indicator dye and acutely stimulated with each ligand.
HEK 293 cells, prepared following the same methodology as outlined in Example 1, were seeded onto Mattek dishes with 14 mm by 1.5 mm glass coverslips. Cells were incubated with Fluo-4am Ca2+ indicator (ThermoFisher) as per manufacturer's instructions. […]. Time-series images were acquired using a Leica SP5 confocal microscope, Leica LAS AF image acquisition software and a 488 nm excitation laser. HEK cells were imaged using a 10× dry objective. EP2 agonists (butaprost 10 μM, AH13205 10 μM or PGN9856i 100 nM) were added following measurement of basal fluorescence. Raw files were analysed using Fiji Time series analyser plugin to find the maximal fluorescent intensity, which was then averaged across cells in each condition.
The maximal fluorescence intensity was measured by live confocal microscopy.

[3] = molecular target: T2, human FLAG-EP2; assay: PGE2 release by ELISA in HEK 293 cells stably expressing EP2; assay type: cell-based; conditions: HEK 293 EP2 cells; 6 hours; butaprost 10 μM, AH13205 10 μM, PGN9856i 100 nM; FIG. 4
Protocol: COX-2 is an inflammatory mediator that drives PGE2 production. The inventors had previously shown EP2-dependent COX-2 release to be downstream of Ca2+ release in primary human myometrium and that 6-hour agonist treatment is necessary for increasing COX-2 levels and PGE2 secretion (Kandola et al, 2014). HEK 293 cells stably expressing human FLAG-EP2 were stimulated for 6 hours with an EP2 agonist (butaprost 10 μM, AH13205 10 μM or PGN9856i 100 nM) or DMSO. 1 mL media was collected from COX-2 experiments and immediately frozen at −80 degrees Celsius. […]

[4] = molecular target: T3, EP2 (Homo sapiens, UniProt P43116); assay: Intracellular cAMP in primary human myocytes from term pregnant non-labouring myometrium; assay type: cell-based; conditions: butaprost 10 μM, AH13205 10 μM, PGN9856i 100 nM, FIG. 5
T3 construct: primary human myocytes cultured from term pregnant, non-labouring, myometrium; endogenous in cells; host or cells: primary human myometrial cells (myocytes) cultured from pregnant myometrium
Protocol: In the myometrium EP2 is an important regulator of parturition. To assess if PGN9856i, butaprost and AH13205 induce similar second messenger profiles in the myometrium as HEK 293 cells, primary human myocytes cultured from term pregnant, non-labouring, myometrium, were treated with each ligand and intracellular cAMP, calcium and PGE2 release was measured.
Myometrial tissue was acquired at St. Mary's hospital, Queen Charlotte and Chelsea hospital and Charing Cross hospital, London. Tissue was obtained from women provided with informed written consent with the approval from the Riverside Research Ethics Committee (RREC 3357, 1997-5089, 19/LO/1657) and experiments were carried out under the committee's guidelines and recommendations. Tissues were obtained from term (38+0-40 weeks gestation) pregnant women undergoing elective caesarean from the upper margin of the incision made at the lower segment of the uterus, before or after the onset of labor. Tissues taken from women in early labour (<3 cm cervical dilation) or late labour (>3 cm cervical dilation) with/without induction with syntocinon, an oxytocin analogue. Tissue was only taken from uncomplicated, singleton pregnancies.
Tissue was stored at 4° C. in phosphate buffered saline until fine dissection with scalpels and dissociation at 37° C. for 1 hour in a sterile-filtered mix of Dulbecco's modified Eagle's medium (DMEM) (Sigma Aldrich)/Ham's F-12 Nutrient Mixture (Sigma Aldrich) and serum-free DMEM (Sigma Aldrich) (1:1 v/v) containing collagenase 1A (Sigma Aldrich)(1 mg/ml), collagenase X (Sigma Aldrich)(1 mg/ml) and bovine serum albumin (Sigma Aldrich) (2 mg/ml). […]
Confluent myometrial cells were treated with/without OT (100 nM) for 1 hour before 3 PBS washes and the addition of […] IBMX (3-isobutyl-1-methylxanthine) in PBS for 5 minutes at 37° C. […] Lysates were normalized to protein concentration determined by Coomassie (Bradford) Protein Assay Kit and analysed as per manufacturers' protocol (Cisbio Gαs dynamic assay) using a PHERAstar FSX.

[5] = molecular target: T3, EP2; assay: cAMP in non-labouring myometrial cells with/without oxytocin pre-treatment; assay type: cell-based; conditions: OT pre-treatment 1 hour, 100 nM; butaprost 10 μM, AH13205 10 μM, PGN9856i 100 nM; FIG. 10
Protocol: Myometrial cells with/without oxytocin (OT) pre-treatment (1 hour, 100 nM) were treated with IBMX (5 minutes, 0.5 mM) before 1 minute stimulation with IBMX with/without either DMSO, butaprost (10 μM), AH13205 (10 μM) or PGN9856i (100 nM). cAMP concentrations were normalised to protein. Each patient's data normalised to butaprost response and shown as mean±SEM, n=6. One-sample t-test: #p<0.05. ##p<0.01. One-way ANOVA with Sidak's multiple comparison post-hoc test: **p<0.01.
as §1

[6] = molecular target: T3, EP2; assay: Intracellular calcium in myometrial cells with/without oxytocin pre-treatment; assay type: cell-based; conditions: OT pre-treatment 1 hour, 100 nM; butaprost 10 μM, AH13205 10 μM, PGN9856i 100 nM; FIG. 11
Protocol: Intracellular calcium response in myometrial cells with/without OT pre-treatment (1 hour, 100 nM) stimulated with butaprost (10 μM), AH13205 (10 μM) or PGN9856i (100 nM). Data are the mean of the maximum fluorescence intensity for each cell measured normalised to background (F-FO). Shown as fold-change over butaprost response. One-way ANOVA with Dunnett's multiple comparison post-hoc test: ##p<0.01. One-sample t-test: *p<0.05.

[7] = test system: β-adrenergic receptor; assay: cAMP signalling in myometrial cells from different labouring groups, β-adrenergic agonist; assay type: cell-based, human; conditions: isoproterenol 10 μM; all labouring groups; FIG. 8
Protocol: Myometrial cells from different labouring groups were treated with IBMX (5 minutes, 0.5 mM) before 1 minute stimulation with IBMX with/without butaprost (10 μM) or isoproterenol (10 μM). cAMP concentrations were normalised to protein. Data shown as mean±SEM, L−n=4. All other groups n=5. Each treatment compared to L− using one-way ANOVA with Dunnett's multiple comparison post-hoc test: **p<0.01, ***p<0.001, ****p<0.0001.

T3 sequence (P43116 whole entry): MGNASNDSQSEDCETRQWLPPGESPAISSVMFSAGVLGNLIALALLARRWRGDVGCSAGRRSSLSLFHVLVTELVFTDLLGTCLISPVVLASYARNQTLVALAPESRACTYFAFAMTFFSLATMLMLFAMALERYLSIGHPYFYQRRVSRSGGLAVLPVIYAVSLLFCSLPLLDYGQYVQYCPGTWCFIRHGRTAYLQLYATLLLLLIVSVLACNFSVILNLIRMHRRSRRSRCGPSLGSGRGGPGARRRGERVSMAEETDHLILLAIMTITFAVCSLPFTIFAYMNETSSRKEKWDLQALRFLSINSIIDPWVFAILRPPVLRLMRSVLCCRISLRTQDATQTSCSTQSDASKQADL
T2 sequence (P43116 whole entry): as above
T1 sequence (P43116 whole entry): as above

Row | SMILES | cAMP efficacy at the maximal dose of each ligand [1] | intracellular Ca2+ release (maximal fluorescence intensity) [2] | PGE2 levels [3] | release of intracellular cAMP [4] | effect of OTR activation on ligand's ability to increase intracellular cAMP [5] | calcium response with OT pre-treatment [6] | agonist-induced cAMP signalling in labouring groups vs non-labouring [7]
1 | CCCCCC(O)c1ccc(C2CCC(=O)C2CCCCCCC(=O)O)cc1 (stereo not shown) [AH13205] | equally efficacious | enhanced Ca2+ significantly above vehicle | efficacious activators of the pathway | able to elicit release of intracellular cAMP | significantly reduced | significantly enhance the calcium response | 
2 | CC(C)NCC(O)c1ccc(O)c(O)c1 (stereo not shown) [isoproterenol] |  |  |  |  |  |  | but not isoproterenol-induced cAMP signalling, was significantly attenuated
